From ChEMBL document CHEMBL1147529, “Discovery and optimization of 2-aryl oxazolo-pyrimidines as adenosine kinase inhibitors using liquid phase parallel synthesis” (Bioorg Med Chem Lett, 2004)

Target: Adenosine kinase (Homo sapiens, UniProt P55263)
Test: Inhibitory activity against human adenosine kinase expressed in Escherichia coli

Sequence of Adenosine kinase (P55263 whole entry): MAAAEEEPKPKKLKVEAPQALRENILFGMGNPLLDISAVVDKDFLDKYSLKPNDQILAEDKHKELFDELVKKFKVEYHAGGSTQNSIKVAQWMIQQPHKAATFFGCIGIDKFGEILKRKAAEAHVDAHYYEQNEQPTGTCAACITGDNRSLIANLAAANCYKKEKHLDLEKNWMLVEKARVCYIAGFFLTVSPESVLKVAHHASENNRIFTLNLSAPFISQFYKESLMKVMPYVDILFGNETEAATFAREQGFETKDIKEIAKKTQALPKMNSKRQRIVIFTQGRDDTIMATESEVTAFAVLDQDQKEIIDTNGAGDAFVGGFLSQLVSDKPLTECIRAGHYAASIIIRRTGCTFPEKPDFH

Row | IC50 | Structure (SMILES)
1 | > 10000 nM | O=C(Nc1cccc(-c2nc3c(N4CC5CCN(Cc6ccccc6)C5C4)ncnc3o2)c1)c1ccc(C(F)(F)F)cc1 (configuration not stated)
2 | > 10000 nM | CCCCNc1ncnc2oc(-c3ccccc3)nc12
3 | > 10000 nM | c1ccc(CN2CCN(c3ncnc4oc(-c5ccccc5)nc34)CC2)cc1
4 | > 1000 nM | c1ccc(CN2CCC3CN(c4ncnc5oc(-c6ccncc6)nc45)CC32)cc1 (configuration not stated)
5 | 40 nM | COCC(=O)Nc1cccc(-c2nc3c(N4CC5CCN(Cc6ccccc6)C5C4)ncnc3o2)c1 (configuration not stated)
6 | > 1000 nM | Fc1ccc(CN2CCCN(c3ncnc4oc(-c5ccccc5)nc34)CC2)cc1
7 | 70 nM | Clc1ccc(-c2nc3c(N4CC5CCN(Cc6ccccc6)C5C4)ncnc3o2)cn1 (configuration not stated)
8 | 210 nM | O=C(Cc1ccccc1)Nc1cccc(-c2nc3c(N4CC5CCN(Cc6ccccc6)C5C4)ncnc3o2)c1 (configuration not stated)
9 | 40 nM | COCC(=O)Nc1ccc(-c2nc3c(N4CC5CCN(Cc6ccccc6)C5C4)ncnc3o2)cc1 (configuration not stated)
10 | 240 nM | Brc1ccc(-c2nc3c(N4CC5CCN(Cc6ccccc6)C5C4)ncnc3o2)cc1 (configuration not stated)
11 | > 10000 nM | Fc1ccc(-c2ccc(-c3nc4c(N5CC6CCN(Cc7ccccc7)C6C5)ncnc4o3)cc2)cc1 (configuration not stated)
12 | 10 nM | CN(C)c1ccc(-c2nc3c(N4CC5CCN(Cc6ccccc6)C5C4)ncnc3o2)cn1 (configuration not stated)
13 | 130 nM | c1ccc(CN2CCC3CN(c4ncnc5oc(-c6cccnc6)nc45)CC32)cc1 (configuration not stated)
14 | 50 nM | Nc1ccc(-c2nc3c(N4CC5CCN(Cc6ccccc6)C5C4)ncnc3o2)cc1 (configuration not stated)
15 | 130 nM | O=C(Nc1ccc(-c2nc3c(N4CC5CCN(Cc6ccccc6)C5C4)ncnc3o2)cc1)c1ccc(F)cc1 (configuration not stated)
16 | 200 nM | c1ccc(CN2CCC3CN(c4ncnc5oc(-c6ccccc6)nc45)CC32)cc1 (configuration not stated)
17 | 90 nM | O=C(Nc1cccc(-c2nc3c(N4CC5CCN(Cc6ccccc6)C5C4)ncnc3o2)c1)c1ccccc1 (configuration not stated)
18 | > 10000 nM | O=C(Nc1ccc(-c2nc3c(N4CC5CCN(Cc6ccccc6)C5C4)ncnc3o2)cc1)c1ccc(C(F)(F)F)cc1 (configuration not stated)

More lines, now with the values behind:

Row | Structure (SMILES) | IC50
19 | c1ccc(CN2C[C@@H]3CCCN(c4ncnc5oc(-c6ccccc6)nc45)[C@@H]3C2)cc1 | 1000 nM
20 | O=C(Nc1cccc(-c2nc3c(N4CC5CCN(Cc6ccccc6)C5C4)ncnc3o2)c1)c1ccc(F)cc1 (configuration not stated) | 200 nM
21 | COCCNc1ncnc2oc(-c3ccccc3)nc12 | > 10000 nM
22 | c1ccc(CCCNc2ncnc3oc(-c4ccccc4)nc23)cc1 | 230 nM
23 | c1ccc(CN2CC3CN(c4ncnc5oc(-c6ccccc6)nc45)CC3C2)cc1 (configuration not stated) | > 10000 nM
24 | O=C(Nc1cccc(-c2nc3c(N4CC5CCN(Cc6ccccc6)C5C4)ncnc3o2)c1)C1CC1 (configuration not stated) | 60 nM
25 | c1ccc(CN2CC[C@@H]3CN(c4ncnc5oc(-c6ccccc6)nc45)C[C@@H]32)cc1 | 120 nM
26 | O=C(Nc1ccc(-c2nc3c(N4CC5CCN(Cc6ccccc6)C5C4)ncnc3o2)cc1)C1CC1 (configuration not stated) | 30 nM
27 | c1ccc(CN2CCC3CN(c4ncnc5oc(-c6ccc(-c7cccs7)cc6)nc45)CC32)cc1 (configuration not stated) | 90 nM
28 | Nc1ncnc2nc(-c3ccc(N4CCOCC4)nc3)cc(-c3cccc(Br)c3)c12 | 10 nM
29 | O=C(Cc1ccccc1)Nc1ccc(-c2nc3c(N4CC5CCN(Cc6ccccc6)C5C4)ncnc3o2)cc1 (configuration not stated) | 70 nM
30 | Brc1cccc(-c2nc3c(N4CC5CCN(Cc6ccccc6)C5C4)ncnc3o2)c1 (configuration not stated) | 260 nM
31 | CN(CCCNc1ncnc2oc(-c3ccccc3)nc12)c1ccccc1 | 270 nM
32 | O=C(Nc1ccc(-c2nc3c(N4CC5CCN(Cc6ccccc6)C5C4)ncnc3o2)cc1)c1ccccc1 (configuration not stated) | 70 nM
